According to patent publication US6355823B1 (Board of Regents, The University of Texas System, priority 1999, dated 2002):
Where “and” joins values, the source holds several entries; their conditions need not be identical. Equal entries are not always repeated.

Legend:
[1] = tested on: rats with normal renal function; assay: Second 2-week study of 2′-PP in drinking water (FIG. 10, 11); assay type: in vivo, rat
Experimental: Serum phosphate again decreased in a 2′-PP concentration-dependent manner immediately after its addition to the rats' drinking water. After 2 weeks on 2′-PP, serum phosphate was reduced to between 1.8 mM on 1 μM 2′-PP and 1.2 mM at 25 μM 2′-PP. […] This decrease in serum calcium may be related to a slight volume expansion. The rats receiving 5 μM or higher concentrations of 2′-PP drank 2-4 times more water than normal for the first 4 days of the study. After the first 4 days, water consumption returned to normal.

[2] = Radioactivity in urine, stool, kidney and liver after [3H]2′-PP; assay type: in vivo, rat
Experimental: (§1) Ten rats with normal renal function were treated with varied amounts of [^3H]2′-PP by gavage for seven days. The 2′-PP was given once/day in a solution containing 270 mM sucrose and 10 mM Tris-Cl pH 7.4. Blood was withdrawn 1, 4, and 7 days from the start of the treatment and analyzed for serum phosphate and serum calcium, with the results shown in Table 1. A second, one-week trial was performed adding 2′-PP to the drinking water. Blood was withdrawn at 1, 4 and 7 days and assayed for calcium and phosphate. Dietary phosphorus was increased from 0.9% to 5% for one week, and the experiment repeated at the elevated dietary phosphorus with 2′-PP added to the drinking water for an additional two weeks. The amount of radioactivity in the urine and stool as examined. After two weeks, the animals were sacrificed, and the kidney and liver were examined for radioactivity.
After 4 weeks on 2′-PP, the rats were sacrificed and their kidneys and liver examined for radioactivity. […] A crude estimate of 2′-PP turnover time was calculated from the amount of radioactivity in the stool after administration of [^3H]2′-PP was discontinued; and the 2′-PP half-life was estimated as 12±1 hr.

[3] = target: T1, intestinal Na/phosphate co-transporter (Oryctolagus cuniculus, UniProt G1SIP4); assay: Na-dependent [32P]phosphate uptake by rabbit intestinal brush border membrane (BBM) vesicles
T1 sequence (G1SIP4 1-715): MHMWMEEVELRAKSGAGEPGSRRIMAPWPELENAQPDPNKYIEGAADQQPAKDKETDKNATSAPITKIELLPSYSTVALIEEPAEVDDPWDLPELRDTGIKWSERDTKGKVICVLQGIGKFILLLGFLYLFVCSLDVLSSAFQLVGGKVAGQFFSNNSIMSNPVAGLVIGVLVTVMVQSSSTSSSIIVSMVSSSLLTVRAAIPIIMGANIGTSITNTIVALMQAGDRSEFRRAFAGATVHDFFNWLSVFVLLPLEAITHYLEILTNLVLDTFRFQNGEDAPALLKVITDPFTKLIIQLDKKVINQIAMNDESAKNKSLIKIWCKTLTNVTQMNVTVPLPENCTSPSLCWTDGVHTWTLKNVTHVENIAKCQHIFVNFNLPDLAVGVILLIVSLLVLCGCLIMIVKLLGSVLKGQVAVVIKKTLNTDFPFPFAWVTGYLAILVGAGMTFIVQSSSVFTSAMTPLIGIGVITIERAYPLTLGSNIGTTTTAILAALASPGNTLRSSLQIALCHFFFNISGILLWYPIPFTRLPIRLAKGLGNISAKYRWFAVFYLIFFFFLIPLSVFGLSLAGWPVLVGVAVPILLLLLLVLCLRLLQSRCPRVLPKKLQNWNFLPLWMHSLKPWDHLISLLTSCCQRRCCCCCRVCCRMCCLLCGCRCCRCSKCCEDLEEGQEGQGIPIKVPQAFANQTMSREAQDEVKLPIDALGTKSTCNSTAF

[4] = target: intestinal brush border membrane alkaline phosphatase (Oryctolagus cuniculus, UniProt G1SXE4); assay: biochemical; assay type: biochemical
Chain of intestinal brush border membrane alkaline phosphatase (G1SXE4 25-504): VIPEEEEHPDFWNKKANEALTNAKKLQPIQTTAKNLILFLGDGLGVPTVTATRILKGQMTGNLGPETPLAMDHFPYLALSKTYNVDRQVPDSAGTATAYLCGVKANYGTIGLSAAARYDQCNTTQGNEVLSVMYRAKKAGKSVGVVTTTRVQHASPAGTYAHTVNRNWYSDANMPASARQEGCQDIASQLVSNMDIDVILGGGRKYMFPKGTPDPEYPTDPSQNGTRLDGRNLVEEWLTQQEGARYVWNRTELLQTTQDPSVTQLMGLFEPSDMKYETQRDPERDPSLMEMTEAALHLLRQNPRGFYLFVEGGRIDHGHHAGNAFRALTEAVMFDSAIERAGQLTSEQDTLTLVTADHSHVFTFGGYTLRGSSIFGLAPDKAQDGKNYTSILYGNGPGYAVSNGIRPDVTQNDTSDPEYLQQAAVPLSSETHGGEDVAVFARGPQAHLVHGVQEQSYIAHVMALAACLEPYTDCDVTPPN

[5] = tested on: rats with normal renal function; assay: Effect of 2′-PP on rat survival, serum phosphate and serum calcium (Table 1 study); assay type: in vivo; conditions: for Serum calcium / Serum phosphate: seven days after beginning treatment
Experimental: as §1
Serum calcium levels (2.1 mM±0.18 mM) remained unchanged (7% fluctuation compared to 3% error in duplicate determinations) on both the normal and high phosphate diets irrespective of 2′-PP concentration. […] Serum phosphate was 2.5±0.2 mM prior to administration of 2′-PP (n=12). […] Rats on the high phosphate diet required higher 2′-PP concentrations to achieve the same results, however, similar decreases in serum phosphate were seen. […] At 10 μM 2′-PP, rats on the high phosphorus diet had serum phosphate levels below that seen in untreated rats on the normal phosphate diet.
The values given are measured seven days after beginning treatment with the indicated 2′-PP concentration. Results are from duplicate rats and assayed in triplicate.

[6] = High Phosphate Diet, [2′-PP] 1 μM
[7] = High Phosphate Diet, [2′-PP] 2 μM
[8] = High Phosphate Diet, [2′-PP] 5 μM
[9] = High Phosphate Diet, [2′-PP] 10 μM
[10] = High Phosphate Diet, [2′-PP] 25 μM
[11] = Normal Phosphate Diet, [2′-PP] 1 μM
[12] = Normal Phosphate Diet, [2′-PP] 2 μM
[13] = Normal Phosphate Diet, [2′-PP] 5 μM
[14] = Normal Phosphate Diet, [2′-PP] 10 μM
[15] = Normal Phosphate Diet, [2′-PP] 25 μM
[16] = four weeks of treatment with 2′-PP

**Q.** With `O=C(CCc1ccc(O)cc1)c1c(O)cc(O)cc1OP(=O)(O)O` as the compound, how does the “water consumption relative to normal” value ([1]; 5 μM or higher concentrations of 2′-PP, first 4 days of the study) read?
**A.** 2-4 times

**Q.** And the Serum calcium ([1]; 2′-PP concentrations of 5 μM and higher)?
**A.** significant decrease

**Q.** And the Serum phosphate ([1]; after 2 weeks at 25 μM 2′-PP in drinking water)?
**A.** 1.2 mM

**Q.** What about the Serum phosphate ([1]; after 2 weeks on 1 μM 2′-PP in drinking water) of the same compound?
**A.** 1.8 mM

**Q.** What about the “radioactivity in the urine, kidney, or the liver” value ([2]; after 4 weeks on [3H]2′-PP) of the same compound?
**A.** No measurable radioactivity

**Q.** What about the “permeation across the intestinal membrane” value ([2]; at the concentrations tested) of the same compound?
**A.** relatively impermeant

**Q.** What about the “2′-PP half-life (turnover time)” value ([2]; crude estimate from radioactivity in the stool after [3H]2′-PP was discontinued) of the same compound?
**A.** 12 ± 1 h

**Q.** What about the Ki [3] of the same compound?
**A.** 590 ± 80 nM

**Q.** What about the “type of inhibition of Na-dependent phosphate uptake” value ([3]; Dixon plot, with respect to phosphate) of the same compound?
**A.** competitive with respect to phosphate

**Q.** What about the “change in apparent k0.5 for inhibition of Na-dependent [32P]phosphate uptake after pre-incubation with Ca-BBM” value ([3]; incubations of up to 10 minutes at 23° C.) of the same compound?
**A.** no measurable change

**Q.** And the “substrate of alkaline / apical membrane phosphatase” value [4]?
**A.** substrate of alkaline phosphatase

**Q.** What about the “type of inhibition of alkaline phosphatase” value [4] of the same compound?
**A.** competitive inhibitor

**Q.** What about the inhibition at 50 µM ([4]; read-out: inhibition of alkaline phosphatase) of the same compound?
**A.** 33%

**Q.** And the Serum calcium [5, 6]?
**A.** 2.1 ± 0.1 mM

**Q.** And the Serum phosphate [5, 6]?
**A.** 4.4 ± 0.2 mM

**Q.** What about the Serum calcium [5, 7] of the same compound?
**A.** 2.1 ± 0.1 mM

**Q.** And the Serum phosphate [5, 7]?
**A.** 3.3 ± 0.2 mM

**Q.** What about the Serum calcium [5, 8] of the same compound?
**A.** 2.1 ± 0.1 mM

**Q.** And the Serum phosphate [5, 8]?
**A.** 2.6 ± 0.1 mM

**Q.** And the Serum calcium [5, 9]?
**A.** 2.1 ± 0.1 mM

**Q.** What about the Serum phosphate [5, 9] of the same compound?
**A.** 2.0 ± 0.04 mM

**Q.** What about the Serum calcium [5, 10] of the same compound?
**A.** 2.0 ± 0.1 mM

**Q.** What about the Serum phosphate [5, 10] of the same compound?
**A.** 1.8 ± 0.08 mM

**Q.** What about the Serum calcium [5, 11] of the same compound?
**A.** 2.1 ± 0.08 mM

**Q.** What about the Serum phosphate [5, 11] of the same compound?
**A.** 2.5 ± 0.1 mM

**Q.** What about the Serum calcium [5, 12] of the same compound?
**A.** 2.1 ± 0.1 mM

**Q.** And the Serum phosphate [5, 12]?
**A.** 2.2 mM and 2.2 ± 0.1 mM

**Q.** What about the Serum calcium [5, 13] of the same compound?
**A.** 2.1 ± 0.05 mM

**Q.** And the Serum phosphate [5, 13]?
**A.** 2.0 ± 0.07 mM

**Q.** What about the Serum calcium [5, 14] of the same compound?
**A.** 2.0 ± 0.1 mM

**Q.** And the Serum phosphate [5, 14]?
**A.** 1.8 ± 0.1 mM

**Q.** And the Serum calcium [5, 15]?
**A.** 2.1 ± 0.1 mM

**Q.** What about the Serum phosphate [5, 15] of the same compound?
**A.** 1.4 mM and 1.4 ± 0.1 mM

**Q.** What about the change in weight [5, 16] of the same compound?
**A.** nor did they suffer any measurable change in weight

**Q.** What about the rat survival [5, 16] of the same compound?
**A.** none of the rats died

**Q.** And the “Serum calcium levels (remained unchanged)” value ([5]; normal and high phosphate diets, irrespective of 2′-PP concentration)?
**A.** 2.1 mM
